Patent US12558331B2, “Pregabalin formulations and use thereof” (priority 2019, dated 2026)

Experiments:
[1] = Water solubility of pregabalin as the function of pH at 5° C.; format: physicochemical
Description: Water solubility at 5° C. of pregabalin as such and with the addition of 2.0 mg/ml sodium benzoate was measured as the function of pH.

[2] = tested on: cats; assay: Randomized, double-blind, placebo-controlled clinical study: transportation and veterinary visit anxiety and fear in cats; format: in vivo, cat; settings: 5 mg/kg orally
Description: A randomized, double-blind, placebo-controlled parallel-group, multicenter clinical study was conducted for evaluating the efficacy and safety of pregabalin for the treatment or prevention of transportation and veterinary visit anxiety and fear in cats. Cats were randomised to receive either 5 mg/kg (n=108) of pregabalin or placebo (n=101) orally as a single dose approximately 90 minutes before transportation to the veterinary clinic.
The study had two primary efficacy variables. The first primary variable was the owner's assessment of the treatment effect based on the cat's stress, anxiety and/or fear during transportation in a car. The second primary variable was the investigator's assessment of the treatment effect based on the cat's stress, anxiety and/or fear during clinical examination at the veterinary clinic. Both were assessed using a numerical rating scale with the scores 1-5.

[3] = single dose approximately 90 minutes before transportation

CC(C)C[C@H](CN)CC(=O)O [pregabalin]
Water solubility as the function of pH ([1]; pregabalin as such, when pH is lower than about 4.4, FIG. 1): increased significantly | Physical stability (precipitation of pregabalin) ([1]; with addition of 2.0 mg/ml sodium benzoate, FIG. 1): further improved the physical stability | Ataxia and sedation ([2]; single dose): did not produce marked ataxia or excessive sedation | Investigator's assessment of treatment effect during clinical examination, % of cats, Score 1 Excellent [2, 3]: 14.3% | Investigator's assessment of treatment effect during clinical examination, % of cats, Score 2 Good [2, 3]: 41.0% | Investigator's assessment of treatment effect during clinical examination, % of cats, Score 3 Fair [2, 3]: 27.6% | Investigator's assessment of treatment effect during clinical examination, % of cats, Score 4 Poor [2, 3]: 10.5% | Investigator's assessment of treatment effect during clinical examination, % of cats, Score 5 Very poor [2, 3]: 6.7% | Owner's assessment of treatment effect during transportation, % of cats, Score 1 Excellent [2, 3]: 17.1% | Owner's assessment of treatment effect during transportation, % of cats, Score 2 Good [2, 3]: 34.3% | Owner's assessment of treatment effect during transportation, % of cats, Score 3 Fair [2, 3]: 23.8% | Owner's assessment of treatment effect during transportation, % of cats, Score 4 Poor [2, 3]: 14.3% | Owner's assessment of treatment effect during transportation, % of cats, Score 5 Very poor [2, 3]: 10.5%
